Toxic doses and inconclusive results are not listed. Rule as the data show it: active = T/C of 150% or more; inactive = T/C below 125%.
Test system: L1210 leukemia ip in BDF1 mice, survival T/C
Assay: NCI In Vivo Anticancer Drug Screen. Data for tumor model L1210 Leukemia (intraperitoneal) in B6D2F1 (BDF1) mice
Conditions: endpoint: mean survival time, higher = longer survival
Outline: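 Antitumor effect is assessed in tumor-bearing animals. Survival in the compound arm is compared with a vehicle-dosed control arm and expressed as their quotient.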

[1] = dose: 100.0 mg/kg/injection, schedule: Q01DX001 (ip), vehicle: saline
[2] = dose: 200.0 mg/kg/injection, schedule: Q01DX001 (ip), vehicle: saline
[3] = dose: 400.0 mg/kg/injection, schedule: Q01DX001 (ip), vehicle: saline
[4] = dose: 100.0 mg/kg/injection, schedule: Q04DX003 (ip), vehicle: saline
[5] = dose: 200.0 mg/kg/injection, schedule: Q04DX003 (ip), vehicle: saline
[6] = dose: 100.0 mg/kg/injection, schedule: Q01DX009 (ip), vehicle: saline with Tween-80
[7] = dose: 200.0 mg/kg/injection, schedule: Q01DX009 (ip), vehicle: saline with Tween-80
[8] = dose: 400.0 mg/kg/injection, schedule: Q04DX003 (ip), vehicle: saline
[9] = dose: 25.0 mg/kg/injection, schedule: Q01DX009 (ip), vehicle: Klucel (hydroxypropylcellulose) (HPC)
[10] = dose: 50.0 mg/kg/injection, schedule: Q01DX009 (ip), vehicle: saline with Tween-80
[11] = dose: 100.0 mg/kg/injection, schedule: Q04DX003 (ip), vehicle: saline with Tween-80
[12] = dose: 200.0 mg/kg/injection, schedule: Q04DX003 (ip), vehicle: saline with Tween-80
[13] = dose: 400.0 mg/kg/injection, schedule: Q04DX003 (ip), vehicle: saline with Tween-80
[14] = dose: 75.0 mg/kg/injection, schedule: Q01DX001 (ip), vehicle: other
[15] = dose: 150.0 mg/kg/injection, schedule: Q01DX001 (ip), vehicle: other

Measured: T/C

CSCCC(NC(=O)C(C)N)C(=O)O (stereo not drawn)
inactive: [1] 90 % of control | [2] 92 % of control | [3] 101 % of control

CC(C)Sc1nn2nnnc2c2ccccc12
inactive: dose: 50.0 mg/kg/injection, schedule: Q04DX003 (ip), vehicle: saline 94 % of control | [4] 97 % of control | [5] 103 % of control

CC1=CC(=O)C(C(O)(C(F)(F)Cl)C(F)(F)Cl)C(C)(C)C1 (stereo not drawn) (tested in a mixture with another compound)
inactive: [6] 98 % of control | [4] 93 % of control | [7] 102 % of control | [5] 98 % of control | [8] 104 % of control

C=C(Br)CNC(=O)C1CCCCC1
inactive: dose: 3.0 mg/kg/injection, schedule: Q04DX003 (ip), vehicle: Klucel (hydroxypropylcellulose) (HPC) 95 % of control | dose: 6.0 mg/kg/injection, schedule: Q04DX003 (ip), vehicle: Klucel (hydroxypropylcellulose) (HPC) 107 % of control | dose: 6.25 mg/kg/injection, schedule: Q01DX009 (ip), vehicle: Klucel (hydroxypropylcellulose) (HPC) 102 % of control | dose: 12.0 mg/kg/injection, schedule: Q04DX003 (ip), vehicle: Klucel (hydroxypropylcellulose) (HPC) 93 % of control | dose: 12.5 mg/kg/injection, schedule: Q01DX009 (ip), vehicle: Klucel (hydroxypropylcellulose) (HPC) 102 % of control | [9] 100 % of control

CC(C(=O)c1ccccc1)c1ccccc1 (stereo not drawn)
inactive: [10] 97 % of control | [6] 87 % of control | dose: 100.0 mg/kg/injection, schedule: Q04DX002 (ip), vehicle: Klucel (hydroxypropylcellulose) (HPC) 106 % of control | dose: 100.0 mg/kg/injection, schedule: Q04DX002 (ip), vehicle: saline with Tween-80 90 % of control | [7] 87 % of control | dose: 200.0 mg/kg/injection, schedule: Q04DX002 (ip), vehicle: Klucel (hydroxypropylcellulose) (HPC) 91 % of control | dose: 200.0 mg/kg/injection, schedule: Q04DX002 (ip), vehicle: saline with Tween-80 107 % of control | dose: 400.0 mg/kg/injection, schedule: Q04DX002 (ip), vehicle: Klucel (hydroxypropylcellulose) (HPC) 98 % of control | dose: 400.0 mg/kg/injection, schedule: Q04DX002 (ip), vehicle: saline with Tween-80 101 % of control

COc1ccc(C=Nc2ccc(O)cc2)cc1
inactive: [1] 102 % of control | [4] 101 % of control | [2] 100 % of control | [5] 108 % of control | [3] 103 % of control | [8] 101 % of control

CC/C(=N/O)c1ccc(O)cc1O
inactive: [6] 106 % of control | [11] 101 % of control | [7] 106 % of control | [12] 101 % of control | [13] 101 % of control

C=CCN1CCCC1=O
inactive: [4] 95 % of control | [5] 96 % of control | [8] 95 % of control

NC(=O)c1ccc[n+](CC(=O)Nc2ccc(Cl)cc2)c1
inactive: [11] 101 % of control | [12] 101 % of control | [13] 95 % of control

Oc1ccc(C=NCCN=Cc2ccc(O)cc2)cc1
inactive: dose: 100.0 mg/kg/injection, schedule: Q01DX001 (ip), vehicle: other 103 % of control | dose: 200.0 mg/kg/injection, schedule: Q01DX001 (ip), vehicle: other 103 % of control | dose: 400.0 mg/kg/injection, schedule: Q01DX001 (ip), vehicle: other 103 % of control

C[N+]1(Cc2ccccc2)CCC(=O)CC1
inactive: dose: 50.0 mg/kg/injection, schedule: Q01DX001 (ip), vehicle: saline 97 % of control | [1] 100 % of control | [2] 103 % of control

O=C1OCCOC1=O
inactive: [14] 90 % of control | [15] 95 % of control | dose: 300.0 mg/kg/injection, schedule: Q01DX001 (ip), vehicle: other 95 % of control

CCCCSCCC
inactive: [6] 98 % of control | [11] 117 % of control | [7] 98 % of control | [12] 96 % of control | dose: 400.0 mg/kg/injection, schedule: Q01DX009 (ip), vehicle: saline with Tween-80 94 % of control | [13] 94 % of control

Nc1ccc(Cl)cc1Br
inactive: dose: 50.0 mg/kg/injection, schedule: Q01DX009 (ip), vehicle: acetone 95 % of control | dose: 100.0 mg/kg/injection, schedule: Q01DX009 (ip), vehicle: acetone 92 % of control | dose: 100.0 mg/kg/injection, schedule: Q04DX003 (ip), vehicle: acetone 96 % of control | dose: 200.0 mg/kg/injection, schedule: Q01DX009 (ip), vehicle: acetone 90 % of control | dose: 200.0 mg/kg/injection, schedule: Q04DX003 (ip), vehicle: acetone 100 % of control | dose: 400.0 mg/kg/injection, schedule: Q04DX003 (ip), vehicle: acetone 96 % of control

CCCCCCCC(=O)c1ccc(O)cc1
inactive: [11] 109 % of control | [12] 100 % of control | [13] 103 % of control

c1ccc(C2SC(c3ccccc3)SC(c3ccccc3)S2)cc1 (stereo not drawn)
inactive: [1] 90 % of control | [2] 88 % of control | [3] 92 % of control

C/C(=C\CN1C(=O)c2ccccc2C1=O)CCC(=O)O
inactive: dose: 25.0 mg/kg/injection, schedule: Q01DX009 (ip), vehicle: saline 109 % of control | dose: 50.0 mg/kg/injection, schedule: Q01DX009 (ip), vehicle: saline 101 % of control | dose: 100.0 mg/kg/injection, schedule: Q01DX009 (ip), vehicle: saline 109 % of control | dose: 200.0 mg/kg/injection, schedule: Q01DX009 (ip), vehicle: saline 111 % of control | dose: 400.0 mg/kg/injection, schedule: Q01DX009 (ip), vehicle: saline 106 % of control

Nc1ncnc2c1c(S(=O)(=O)O)cn2C1OC(CO)C(O)C1O (stereo not drawn)
inactive: dose: 100.0 mg/kg/injection, schedule: Q01DX001 (ip), vehicle: Klucel (hydroxypropylcellulose) (HPC) 90 % of control | dose: 200.0 mg/kg/injection, schedule: Q01DX001 (ip), vehicle: Klucel (hydroxypropylcellulose) (HPC) 93 % of control | dose: 400.0 mg/kg/injection, schedule: Q01DX001 (ip), vehicle: Klucel (hydroxypropylcellulose) (HPC) 100 % of control

Nc1nc(N)c(C=Nc2ccc(I)cc2)c(Nc2ccc(I)cc2)n1
inactive: dose: 400.0 mg/kg/injection, schedule: Q01DX001 (ip), vehicle: alcohol 86 % of control

O=[N+]([O-])c1cccc(C(O)C=C(C(F)(F)F)C(F)(F)F)c1 (stereo not drawn)
inactive: dose: 25.0 mg/kg/injection, schedule: Q01DX009 (ip), vehicle: saline with Tween-80 100 % of control | [10] 98 % of control | [6] 98 % of control | [11] 103 % of control

O=C(NCCCCc1ccccc1)c1ccc([N+](=O)[O-])s1
inactive: dose: 50.0 mg/kg/injection, schedule: Q01DX005 (ip), vehicle: water 94 % of control | dose: 100.0 mg/kg/injection, schedule: Q01DX005 (ip), vehicle: water 87 % of control | dose: 200.0 mg/kg/injection, schedule: Q01DX005 (ip), vehicle: water 94 % of control | dose: 400.0 mg/kg/injection, schedule: Q01DX005 (ip), vehicle: water 94 % of control

CCOC(=O)C(C#N)NC(C)=O (stereo not drawn)
inactive: dose: 100.0 mg/kg/injection, schedule: Q04DX003 (ip), vehicle: Klucel (hydroxypropylcellulose) (HPC) 102 % of control | dose: 200.0 mg/kg/injection, schedule: Q04DX003 (ip), vehicle: Klucel (hydroxypropylcellulose) (HPC) 102 % of control | dose: 400.0 mg/kg/injection, schedule: Q04DX003 (ip), vehicle: Klucel (hydroxypropylcellulose) (HPC) 111 % of control

ClCCOCCOCCOCCCl
inactive: dose: 75.0 mg/kg/injection, schedule: Q01DX009 (ip), vehicle: saline with Tween-80 97 % of control | [11] 97 % of control | dose: 150.0 mg/kg/injection, schedule: Q01DX009 (ip), vehicle: saline with Tween-80 93 % of control | [12] 106 % of control | dose: 300.0 mg/kg/injection, schedule: Q01DX009 (ip), vehicle: saline with Tween-80 93 % of control | [13] 102 % of control

CS(=O)(=O)OCCCCCCCCCOS(C)(=O)=O
inactive: [9] 96 % of control | dose: 50.0 mg/kg/injection, schedule: Q01DX009 (ip), vehicle: Klucel (hydroxypropylcellulose) (HPC) 103 % of control | [14] 95 % of control | dose: 100.0 mg/kg/injection, schedule: Q01DX009 (ip), vehicle: Klucel (hydroxypropylcellulose) (HPC) 105 % of control | [15] 108 % of control

CCCCCCCCCCC(C)c1ccc(S(=O)(=O)O)cc1 (stereo not drawn)
inactive: dose: 100.0 mg/kg/injection, schedule: Q01DX001 (ip), vehicle: saline sonified 97 % of control | dose: 200.0 mg/kg/injection, schedule: Q01DX001 (ip), vehicle: saline sonified 107 % of control
